From patent US8084466B2, “Bicyclic heteroaryl-substituted imidazoles as modulators of the histamine H4 receptor” (Janssen Pharmaceutica NV, priority 2007, dated 2011)

What follows are compounds tested against T1, human histamine H4 receptor (Homo sapiens, UniProt Q9H3N8) (assay: Binding Assay on Recombinant Human Histamine H4 Receptor). Conditions: competition binding with 3H-histamine (5 nM; KD 5 nM), membranes of SK-N-MC or COS7 cells expressing human H4 receptor; average of results; > = highest value tested.
T1 construct: expressed in transfected cells; host or cells: SK-N-MC cells or COS7 cells, transient transfection with pH4R; cell membranes
Description: Biological Methods: Binding Assay on Recombinant Human Histamine H4 Receptor
SK-N-MC cells or COS7 cells were transiently transfected with pH4R and grown in 150 cm^2 tissue culture dishes. Cells were washed with saline solution, scraped with a cell scraper and collected by centrifugation (1000 rpm, 5 min). Cell membranes were prepared by homogenization of the cell pellet in 20 mM Tris-HCl with a polytron tissue homogenizer for 10 sec at high speed. Homogenate was centrifuged at 1000 rpm for 5 min at 4° C. The supernatant was then collected and centrifuged at 20,000×g for 25 min at 4° C. The final pellet was resuspended in 50 mM Tris-HCl. Cell membranes were incubated with ^3H-histamine (5-70 nM) in the presence or absence of excess histamine (10,000 nM). Incubation occurred at room temperature for […]. Membranes were harvested by rapid filtration over Whatman GF/C filters and washed 4 times with ice-cold 50 mM Tris HCl. Filters were then dried, mixed with scintillant and counted for radioactivity. SK-N-MC or COS7 cells expressing human histamine H4 receptor were used to measure the affinity of binding of other compounds and their ability to displace ^3H-ligand binding by incubating the above-described reaction in the presence of various concentrations of inhibitor or compound to be tested. For competition binding studies using ^3H-histamine, Ki values were calculated, based on an experimentally determined KD value of 5 nM and a ligand concentration of 5 nM, according to Y.-C.

T1 sequence (Q9H3N8 whole entry): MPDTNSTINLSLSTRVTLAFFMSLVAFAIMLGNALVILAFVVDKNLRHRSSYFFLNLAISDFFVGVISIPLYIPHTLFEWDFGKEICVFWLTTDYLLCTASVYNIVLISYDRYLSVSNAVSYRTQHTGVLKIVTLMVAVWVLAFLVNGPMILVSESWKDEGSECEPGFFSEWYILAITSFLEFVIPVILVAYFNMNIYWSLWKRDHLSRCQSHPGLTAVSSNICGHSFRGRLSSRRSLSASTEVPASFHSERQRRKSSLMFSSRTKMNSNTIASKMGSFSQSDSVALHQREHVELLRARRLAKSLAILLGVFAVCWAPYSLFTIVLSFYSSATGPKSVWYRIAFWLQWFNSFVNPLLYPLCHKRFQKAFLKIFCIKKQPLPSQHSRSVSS

**Q.** How did the Ki turn out when `Cc1cc(C)c2nc(-c3ccc4ccn(CCCCC5CCNCC5)c4c3)[nH]c2c1` [Example 37, 4,6-Dimethyl-2-[1-(4-piperidin-4-yl-butyl)-1H-indol-6-yl]-1H-benzoimidazole] was run?
**A.** 2230 nM

**Q.** Which Ki does the source give for `CN1CCC(CCCCn2ccc3c(-c4nc5cc(C(F)(F)F)ccc5[nH]4)cccc32)CC1` [Example 18, 2-{1-[4-(1-Methyl-piperidin-4-yl)-butyl]-1H-indol-4-yl}-5-trifluoromethyl-1H-benzoimidazole] here?
**A.** 85 nM

**Q.** With `Cc1nc(-c2ccc3c(ncn3CCCC3CCN(C)CC3)c2C)[nH]c1-c1ccc(C(F)(F)F)cc1` [Example 82, 4-Methyl-1-[3-(1-methyl-piperidin-4-yl)-propyl]-5-[4-methyl-5-(4-trifluoromethyl-phenyl)-1H-imidazol-2-yl]-1H-benzoimidazole] as the compound, how does the Ki read?
**A.** 0.3 nM

**Q.** For `Cc1c(F)ccc2[nH]c(-c3ccc4c(ccn4CCCC4CCN(C)CC4)c3)nc12` [Example 11, 5-Fluoro-4-methyl-2-{1-[3-(1-methyl-piperidin-4-yl)-propyl]-1H-indol-5-yl}-1H-benzoimidazole], which Ki is on record?
**A.** 77 nM

**Q.** For `Cc1c(C)n(CCCC2CCN(C)CC2)c2ccc(-c3nc4c(C)c(F)ccc4[nH]3)cc12` [Example 15, 2-{2,3-Dimethyl-1-[3-(1-methyl-piperidin-4-yl)-propyl]-1H-indol-5-yl}-5-fluoro-4-methyl-1H-benzoimidazole], which Ki is on record?
**A.** 110 nM

**Q.** Which Ki does the source give for `Cc1cc(Cl)cc2[nH]c(-c3cccc4c3ccn4CCCCC3CCN(C)CC3)nc12` [Example 22, 6-Chloro-4-methyl-2-{1-[4-(1-methyl-piperidin-4-yl)-butyl]-1H-indol-4-yl}-1H-benzoimidazole] here?
**A.** 105 nM

**Q.** With `Cc1cccc2[nH]c(-c3ccc4ccn(CCCCC5CCNCC5)c4c3)nc12` [Example 107, 4-Methyl-2-[1-(4-piperidin-4-yl-butyl)-1H-indol-6-yl]-1H-benzoimidazole] as the compound, how does the Ki read?
**A.** > 10000 nM

**Q.** How did the Ki turn out when `CN1CCC(CCCCn2cc(Cl)c3c(-c4nc5cc(F)c(F)cc5[nH]4)cccc32)CC1` [Example 32, 2-{3-Chloro-1-[4-(1-methyl-piperidin-4-yl)-butyl]-1H-indol-4-yl}-5,6-difluoro-1H-benzoimidazole] was run?
**A.** 599 nM

**Q.** For `CN1CCC(CCCCn2cnc3ccc(-c4nc5cc(F)ccc5[nH]4)cc32)CC1` [Example 126, 5-Fluoro-3′-[4-(1-methyl-piperidin-4-yl)-butyl]-1H,3′H [2,5′]bibenzoimidazolyl], which Ki is on record?
**A.** > 10000 nM

**Q.** With `CN1CCC(CCCCn2ccc3c(-c4nc5cc(C(=O)c6ccccc6)ccc5[nH]4)cccc32)CC1` [Example 20, (2-{1-[4-(1-Methyl-piperidin-4-yl)-butyl]-1H-indol-4-yl}-1H-benzoimidazol-5-yl)-phenyl-methanone] as the compound, how does the Ki read?
**A.** 619 nM

**Q.** How did the Ki turn out when `Cc1ccc2[nH]c(-c3ccc4c(ncn4CCCC4CCN(C)CC4)c3C)nc2c1C` [Example 52, 5,4′-Trimethyl-1′-[3-(1-methyl-piperidin-4-yl)-propyl]-1H,1′H-[2,5′]bibenzoimidazolyl] was run?
**A.** 33 nM

**Q.** `CN1CCC(CCCCn2ccc3c(-c4nc5c(Cl)cccc5[nH]4)cccc32)CC1` [Example 17, 4-Chloro-2-{1-[4-(1-methyl-piperidin-4-yl)-butyl]-1H-indol-4-yl}-1H-benzoimidazole] was tested. Which Ki did it give?
**A.** 58 nM

**Q.** With `Cc1c(F)ccc2[nH]c(-c3ccc4c(c3F)CCN4CCCC3CCN(C)CC3)nc12` [Example 6, 5-Fluoro-2-{4-fluoro-1-[3-(1-methyl-piperidin-4-yl)-propyl]-2,3-dihydro-1H-indol-5-yl}-4-methyl-1H-benzoimidazole] as the compound, how does the Ki read?
**A.** 123 nM

**Q.** For `Cc1c(F)ccc2[nH]c(-c3ccc4ccn(CCCCC5CCNCC5)c4c3)nc12` [Example 38, 5-Fluoro4-methyl-2-[1-(4-piperidin-4-yl-butyl)-1H-indol-6-yl]-1H-benzoimidazole], which Ki is on record?
**A.** 1140 nM

**Q.** `Cc1ccc2[nH]c(-c3cc4ccn(CCCC5CCN(C)CC5)c4cc3Cl)nc2c1C` [Example 103, 2-{6-Chloro-1-[3-(1-methyl-piperidin-4-yl)-propyl]-1H-indol-5-yl}-4,5-dimethyl-1H-benzoimidazole] was tested. Which Ki did it give?
**A.** 2770 nM

**Q.** Which Ki does the source give for `CN(C)Cc1cn(CCCCC2CCNCC2)c2ccc(-c3nc4cc(C(C)(C)C)ccc4[nH]3)cc12` [Example 39, [5-(5-tert-Butyl-1H-benzoimidazol-2-yl)-1-(4-piperidin-4-yl-butyl)-1H-indol-3-ylmethyl]-dimethyl-amine] here?
**A.** 2920 nM

**Q.** `CN1CCC(CCCCn2ccc3c(-c4nc5ccc6ccccc6c5[nH]4)cccc32)CC1` [Example 71, 2-{1-[4-(1-Methyl-piperidin-4-yl)-butyl]-1H-indol-4-yl}-1H-naphtho[1,2-d]imidazole] was tested. Which Ki did it give?
**A.** 802 nM

**Q.** Which Ki does the source give for `CN1CCC(CCCCn2ccc3c(-c4nc5cc6c(cc5[nH]4)OCO6)cccc32)CC1` [Example 19, 6-{1-[4-(1-Methyl-piperidin-4-yl)-butyl]-1H-indol-4-yl}-5H-[1,3]dioxolo[4′,5′:4,5]benzo[1,2-d] imidazole] here?
**A.** 404 nM

**Q.** With `Fc1ccc2[nH]c(-c3ccc4ncn(CCCCC5CCNCC5)c4c3)nc2c1` [Example 124, 5-Fluoro-3′-(4-piperidin-4-yl-butyl)-1H,3′H-[2,5′]bibenzoimidazolyl] as the compound, how does the Ki read?
**A.** > 10000 nM

**Q.** For `Cc1c(F)ccc2[nH]c(-c3cc4ccn(CCCC5CCNCC5)c4cc3Cl)nc12` [Example 49, 2-[6-Chloro-1-(3-piperidin-4-yl-propyl)-1H-indol-5-yl]-5-fluoro-4-methyl-1H-benzoimidazole], which Ki is on record?
**A.** 1730 nM

**Q.** With `CN1CCC(CCCCn2cc(Cl)c3c(-c4nc5cccc(C(=O)c6ccccc6)c5[nH]4)cccc32)CC1` [Example 72, (2-{3-Chloro-1-[4-(1-methyl-piperidin-4-yl)-butyl]-1H-indol-4-yl}-3H-benzoimidazol-4-yl)-phenyl-methanone] as the compound, how does the Ki read?
**A.** 545 nM

**Q.** `FC(F)(F)c1ccc2[nH]c(-c3cccc4c3c(Cl)cn4CCCCC3CCNCC3)nc2c1` [Example 130, 2-[3-Chloro-1-(4-piperidin-4-yl-butyl)-1H-indol-4-yl]-5-trifluoromethyl-1H-benzoimidazole] was tested. Which Ki did it give?
**A.** > 10000 nM

**Q.** With `COc1ccc(-c2[nH]c(-c3ccc4c(ncn4CCCC4CCN(C)CC4)c3C)nc2C)cc1` [Example 143, 5-[5-(4-Methoxy-phenyl)-4-methyl-1H-imidazol-2-yl]-4-methyl-1-[3-(1-methyl-piperidin-4-yl)-propyl]-1H-benzoimidazole] as the compound, how does the Ki read?
**A.** 1 nM

**Q.** `CCCc1[nH]c(-c2ccc3c(ncn3CCCC3CCN(C)CC3)c2C)nc1C` [Example 81, 4-Methyl-1-[3-(1-methyl-piperidin-4-yl)-propyl]-5-(4-methyl-5-propyl-1H-imidazol-2-yl)-1H-benzoimidazole] was tested. Which Ki did it give?
**A.** 953 nM

**Q.** With `Cc1ccc2[nH]c(-c3ccc4c(ccn4CCCN4CCNCC4)c3)nc2c1C` [Example 62, 4,5-Dimethyl-2-[1-(3-piperazin-1-yl-propyl)-1H-indol-5-yl]-1H-benzoimidazole] as the compound, how does the Ki read?
**A.** 1310 nM

**Q.** How did the Ki turn out when `c1ccc2cc3[nH]c(-c4cccc5c4ccn5CCCCC4CCNCC4)nc3cc2c1` [Example 127, 2-[1-(4-Piperidin-4-yl-butyl)-1H-indol-4-yl]-1H-naphtho[2,3-d]imidazole] was run?
**A.** 2100 nM

**Q.** How did the Ki turn out when `Fc1cc(F)c2nc(-c3cccc4c3ccn4CCCCC3CCNCC3)[nH]c2c1` [Example 116, 4,6-Difluoro-2-[1-(4-piperidin-4-yl-butyl)-1H-indol-4-yl]-1H-benzoimidazole] was run?
**A.** 3330 nM

**Q.** Which Ki does the source give for `Cc1ccc(-c2nc(-c3ccc4c(ncn4CCCC4CCN(C)CC4)c3C)[nH]c2-c2ccc(Cl)cc2)cc1` [Example 85] here?
**A.** 5 nM

**Q.** With `Cc1nc(-c2ccc3c(ncn3CCCC3CCN(C)CC3)c2C)[nH]c1-c1ccc(C(F)(F)F)cc1` [Example 142, 4-Methyl-1-[3-(1-methyl-piperidin-4-yl)-propyl]-5-[4-methyl-5-(4-trifluoromethyl-phenyl)-1H-imidazol-2-yl]-1H-benzoimidazole] as the compound, how does the Ki read?
**A.** 7 nM

**Q.** How did the Ki turn out when `Cc1cc(C)c2nc(-c3ccc4c(ccn4CCCC4CCN(C)CC4)c3Cl)[nH]c2c1` [Example 9, 2-{4-Chloro-1-[3-(1-methyl-piperidin-4-yl)-propyl]-1H-indol-5-yl}-4,6-dimethyl-1H-benzoimidazole] was run?
**A.** 14 nM

**Q.** For `Clc1ccc2[nH]c(-c3ccc4c(c3)CCN4CCCC3CCNCC3)nc2c1` [Example 94, 5-Chloro-2-[1-(3-piperidin-4-yl-propyl)-2,3-dihydro-1H-indol-5-yl]-1H-benzoimidazole], which Ki is on record?
**A.** 600 nM

**Q.** With `Cc1cc(C)c2nc(-c3ccc4c(c3)c(C)c(C)n4CCCC3CCNCC3)[nH]c2c1` [Example 89, 2-[2,3-Dimethyl-1-(3-piperidin-4-yl-propyl)-1H-indol-5-yl]-4,6-dimethyl-1H-benzoimidazole] as the compound, how does the Ki read?
**A.** 2000 nM

**Q.** Which Ki does the source give for `O=C(c1ccccc1)c1ccc2[nH]c(-c3cccc4c3ccn4CCCCC3CCNCC3)nc2c1` [Example 77, Phenyl-{2-[1-(4-piperidin-4-yl-butyl)-1H-indol-4-yl]-1H-benzoimidazol-5-yl}-methanone] here?
**A.** 1670 nM

**Q.** For `Cc1c(F)ccc2[nH]c(-c3ccc4c(c3)CCN4CCCC3CCNCC3)nc12` [Example 93, 5-Fluoro-4-methyl-2-[1-(3-piperidin-4-yl-propyl)-2,3-dihydro-1H-indol-5-yl]-1H-benzoimidazole], which Ki is on record?
**A.** 1100 nM

**Q.** Which Ki does the source give for `Clc1cccc2[nH]c(-c3cccc4c3ccn4CCCCC3CCNCC3)nc12` [Example 36, 4-Chloro-2-[1-(4-piperidin-4-yl-butyl)-1H-indol-4-yl]-1H-benzoimidazole] here?
**A.** 2330 nM
